Data as given in PMC3639963, “A New Class of Small Molecule Inhibitor of BMP Signaling” (PLoS ONE, 2013).

Legend:
Test in all cases: Nanosyn kinase profiling
Format in all cases: biochemical
Conditions in all cases: read-out: Percentage inhibition; for inhibition at 0.1 µM: 0.1 µM inhibitor; for inhibition at 1 µM: 1 µM inhibitor
LCK = target: T1, LCK (Homo sapiens, UniProt P06239)
T1 construct: purchased Nanosyn (enzymatic panel); SGC in-house recombinant human kinases (DSF panel); Invitrogen (ALK1-6)
T1 sequence (P06239 whole entry): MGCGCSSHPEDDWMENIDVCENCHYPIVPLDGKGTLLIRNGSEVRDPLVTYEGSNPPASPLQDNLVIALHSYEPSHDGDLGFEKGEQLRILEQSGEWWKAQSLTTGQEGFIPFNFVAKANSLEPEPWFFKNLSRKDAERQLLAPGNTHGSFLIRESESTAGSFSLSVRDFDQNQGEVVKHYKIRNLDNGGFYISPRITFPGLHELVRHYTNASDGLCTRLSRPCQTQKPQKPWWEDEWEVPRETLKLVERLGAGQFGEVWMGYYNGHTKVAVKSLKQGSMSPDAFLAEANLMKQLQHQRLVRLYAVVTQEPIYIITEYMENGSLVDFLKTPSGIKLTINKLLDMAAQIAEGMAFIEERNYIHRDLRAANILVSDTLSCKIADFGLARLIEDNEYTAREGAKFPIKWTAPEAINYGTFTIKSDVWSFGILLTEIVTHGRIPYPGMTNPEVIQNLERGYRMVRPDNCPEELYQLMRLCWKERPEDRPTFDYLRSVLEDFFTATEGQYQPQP
Method in brief: (§1)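 Percent inhibition of each kinase was measured with the inhibitor at 0.1 µM and at 1 µM, as part of a 200-kinase human selectivity panel.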

EPHB4 = target: T2, EPHB4 (Homo sapiens, UniProt P54760)
T2 construct: purchased Nanosyn (enzymatic panel); SGC in-house recombinant human kinases (DSF panel); Invitrogen (ALK1-6)
T2 sequence (P54760 16-987): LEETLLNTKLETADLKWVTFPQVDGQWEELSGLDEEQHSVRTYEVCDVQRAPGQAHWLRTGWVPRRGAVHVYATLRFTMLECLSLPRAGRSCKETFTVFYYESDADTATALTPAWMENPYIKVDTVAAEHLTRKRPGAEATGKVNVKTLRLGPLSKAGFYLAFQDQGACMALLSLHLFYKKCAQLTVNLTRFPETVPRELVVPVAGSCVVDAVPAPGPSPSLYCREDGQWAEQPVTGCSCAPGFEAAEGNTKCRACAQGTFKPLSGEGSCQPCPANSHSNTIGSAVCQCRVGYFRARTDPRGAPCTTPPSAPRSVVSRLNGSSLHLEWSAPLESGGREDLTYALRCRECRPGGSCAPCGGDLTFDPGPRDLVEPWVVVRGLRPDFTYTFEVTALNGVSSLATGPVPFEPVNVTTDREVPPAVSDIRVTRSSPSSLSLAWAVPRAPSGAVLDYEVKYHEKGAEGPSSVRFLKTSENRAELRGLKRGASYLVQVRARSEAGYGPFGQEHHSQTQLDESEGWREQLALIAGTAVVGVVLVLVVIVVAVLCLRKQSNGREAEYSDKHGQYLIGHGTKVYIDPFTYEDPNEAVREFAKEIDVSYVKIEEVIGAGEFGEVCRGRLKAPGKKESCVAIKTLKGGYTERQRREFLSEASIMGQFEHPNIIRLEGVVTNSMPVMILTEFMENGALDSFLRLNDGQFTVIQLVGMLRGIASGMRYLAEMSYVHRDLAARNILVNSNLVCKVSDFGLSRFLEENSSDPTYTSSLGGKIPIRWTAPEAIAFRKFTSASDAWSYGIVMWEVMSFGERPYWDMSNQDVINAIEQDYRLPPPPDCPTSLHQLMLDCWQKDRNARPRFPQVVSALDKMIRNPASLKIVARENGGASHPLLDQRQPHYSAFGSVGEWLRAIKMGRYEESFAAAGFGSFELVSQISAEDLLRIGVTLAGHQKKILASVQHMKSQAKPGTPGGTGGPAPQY
Method in brief: as §1

FGFR4 = target: T3, FGFR4 (Homo sapiens, UniProt P22455)
T3 construct: purchased Nanosyn (enzymatic panel); SGC in-house recombinant human kinases (DSF panel); Invitrogen (ALK1-6)
T3 sequence (P22455 22-802): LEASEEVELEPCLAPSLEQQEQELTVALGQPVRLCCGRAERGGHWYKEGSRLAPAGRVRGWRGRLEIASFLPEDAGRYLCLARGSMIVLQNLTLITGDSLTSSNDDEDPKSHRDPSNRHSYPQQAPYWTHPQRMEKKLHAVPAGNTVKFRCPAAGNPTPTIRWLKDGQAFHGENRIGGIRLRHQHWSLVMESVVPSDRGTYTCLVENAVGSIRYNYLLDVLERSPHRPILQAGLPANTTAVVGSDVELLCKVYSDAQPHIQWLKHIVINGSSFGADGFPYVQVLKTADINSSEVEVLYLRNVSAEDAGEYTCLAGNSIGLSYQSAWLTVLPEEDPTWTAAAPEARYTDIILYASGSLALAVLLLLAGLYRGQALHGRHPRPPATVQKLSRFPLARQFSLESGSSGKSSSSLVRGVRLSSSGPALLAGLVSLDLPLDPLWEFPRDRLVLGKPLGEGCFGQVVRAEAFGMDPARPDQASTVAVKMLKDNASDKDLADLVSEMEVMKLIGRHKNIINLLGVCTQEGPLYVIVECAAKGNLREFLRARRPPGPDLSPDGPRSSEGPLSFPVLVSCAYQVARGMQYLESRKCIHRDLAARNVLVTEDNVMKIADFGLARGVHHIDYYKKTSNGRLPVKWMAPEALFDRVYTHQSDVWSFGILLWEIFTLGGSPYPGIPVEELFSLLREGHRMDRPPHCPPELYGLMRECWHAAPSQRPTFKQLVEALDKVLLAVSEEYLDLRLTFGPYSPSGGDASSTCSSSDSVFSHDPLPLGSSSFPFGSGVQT
Method in brief: as §1

SYK = target: T4, SYK (Homo sapiens, UniProt P43405)
T4 construct: purchased Nanosyn (enzymatic panel); SGC in-house recombinant human kinases (DSF panel); Invitrogen (ALK1-6)
Method in brief: as §1

PKCι = target: T5, PKCι (Homo sapiens, UniProt P41743)
T5 construct: purchased Nanosyn (enzymatic panel); SGC in-house recombinant human kinases (DSF panel); Invitrogen (ALK1-6)
T5 sequence (P41743 1-596): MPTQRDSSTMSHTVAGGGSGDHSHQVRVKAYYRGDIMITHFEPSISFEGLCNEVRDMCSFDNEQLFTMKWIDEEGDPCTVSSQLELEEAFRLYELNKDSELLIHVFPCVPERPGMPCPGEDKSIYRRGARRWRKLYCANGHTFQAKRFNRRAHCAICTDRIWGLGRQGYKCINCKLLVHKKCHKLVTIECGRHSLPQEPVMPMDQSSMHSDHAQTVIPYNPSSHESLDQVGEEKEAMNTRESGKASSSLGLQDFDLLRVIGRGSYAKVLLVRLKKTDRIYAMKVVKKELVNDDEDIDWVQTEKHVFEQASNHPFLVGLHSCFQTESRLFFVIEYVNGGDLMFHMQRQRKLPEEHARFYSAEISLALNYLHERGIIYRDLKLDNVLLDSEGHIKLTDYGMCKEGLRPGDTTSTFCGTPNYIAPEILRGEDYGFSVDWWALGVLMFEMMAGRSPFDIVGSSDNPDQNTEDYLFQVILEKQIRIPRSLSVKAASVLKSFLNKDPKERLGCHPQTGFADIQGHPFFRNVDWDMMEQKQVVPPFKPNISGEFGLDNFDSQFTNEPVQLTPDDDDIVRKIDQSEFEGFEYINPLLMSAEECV
Method in brief: as §1

DDR2 = target: T6, DDR2 (Homo sapiens, UniProt Q16832)
T6 construct: purchased Nanosyn (enzymatic panel); SGC in-house recombinant human kinases (DSF panel); Invitrogen (ALK1-6)
T6 sequence (Q16832 22-855): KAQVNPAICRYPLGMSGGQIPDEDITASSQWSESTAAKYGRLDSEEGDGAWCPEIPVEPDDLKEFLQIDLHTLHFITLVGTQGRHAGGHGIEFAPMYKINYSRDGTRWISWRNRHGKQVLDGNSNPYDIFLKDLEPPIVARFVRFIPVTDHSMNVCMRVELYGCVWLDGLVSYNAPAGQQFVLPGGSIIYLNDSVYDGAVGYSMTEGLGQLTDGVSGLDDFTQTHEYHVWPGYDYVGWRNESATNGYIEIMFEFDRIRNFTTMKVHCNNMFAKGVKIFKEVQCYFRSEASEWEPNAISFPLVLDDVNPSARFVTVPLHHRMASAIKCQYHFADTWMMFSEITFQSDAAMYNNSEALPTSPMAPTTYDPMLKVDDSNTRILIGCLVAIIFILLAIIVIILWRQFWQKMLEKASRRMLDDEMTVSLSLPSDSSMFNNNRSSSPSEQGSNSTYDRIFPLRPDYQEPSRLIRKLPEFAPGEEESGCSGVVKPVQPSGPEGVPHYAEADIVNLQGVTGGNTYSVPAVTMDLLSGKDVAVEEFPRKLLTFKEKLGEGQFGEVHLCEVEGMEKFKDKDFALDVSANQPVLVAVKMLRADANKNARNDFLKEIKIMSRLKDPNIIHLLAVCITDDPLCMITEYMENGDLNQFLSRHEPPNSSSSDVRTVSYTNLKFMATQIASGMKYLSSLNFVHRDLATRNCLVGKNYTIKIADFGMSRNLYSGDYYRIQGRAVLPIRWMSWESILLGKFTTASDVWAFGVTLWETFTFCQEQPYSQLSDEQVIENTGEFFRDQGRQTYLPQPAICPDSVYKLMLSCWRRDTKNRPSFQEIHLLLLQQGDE
Method in brief: as §1

PIM1 = target: T7, PIM1 (Homo sapiens, UniProt P11309)
T7 construct: purchased Nanosyn (enzymatic panel); SGC in-house recombinant human kinases (DSF panel); Invitrogen (ALK1-6)
T7 sequence (P11309 whole entry): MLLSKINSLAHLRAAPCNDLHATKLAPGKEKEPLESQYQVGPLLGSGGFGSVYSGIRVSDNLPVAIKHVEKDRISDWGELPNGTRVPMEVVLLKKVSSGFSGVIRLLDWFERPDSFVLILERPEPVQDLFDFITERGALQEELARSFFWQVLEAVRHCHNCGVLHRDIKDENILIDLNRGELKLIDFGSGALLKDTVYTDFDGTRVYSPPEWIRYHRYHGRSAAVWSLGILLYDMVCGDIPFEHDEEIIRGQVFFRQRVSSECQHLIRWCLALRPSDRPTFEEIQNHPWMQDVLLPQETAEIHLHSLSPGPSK
Method in brief: as §1

TYK2 = target: T8, TYK2 (Homo sapiens, UniProt P29597)
T8 construct: purchased Nanosyn (enzymatic panel); SGC in-house recombinant human kinases (DSF panel); Invitrogen (ALK1-6)
T8 sequence (P29597 whole entry): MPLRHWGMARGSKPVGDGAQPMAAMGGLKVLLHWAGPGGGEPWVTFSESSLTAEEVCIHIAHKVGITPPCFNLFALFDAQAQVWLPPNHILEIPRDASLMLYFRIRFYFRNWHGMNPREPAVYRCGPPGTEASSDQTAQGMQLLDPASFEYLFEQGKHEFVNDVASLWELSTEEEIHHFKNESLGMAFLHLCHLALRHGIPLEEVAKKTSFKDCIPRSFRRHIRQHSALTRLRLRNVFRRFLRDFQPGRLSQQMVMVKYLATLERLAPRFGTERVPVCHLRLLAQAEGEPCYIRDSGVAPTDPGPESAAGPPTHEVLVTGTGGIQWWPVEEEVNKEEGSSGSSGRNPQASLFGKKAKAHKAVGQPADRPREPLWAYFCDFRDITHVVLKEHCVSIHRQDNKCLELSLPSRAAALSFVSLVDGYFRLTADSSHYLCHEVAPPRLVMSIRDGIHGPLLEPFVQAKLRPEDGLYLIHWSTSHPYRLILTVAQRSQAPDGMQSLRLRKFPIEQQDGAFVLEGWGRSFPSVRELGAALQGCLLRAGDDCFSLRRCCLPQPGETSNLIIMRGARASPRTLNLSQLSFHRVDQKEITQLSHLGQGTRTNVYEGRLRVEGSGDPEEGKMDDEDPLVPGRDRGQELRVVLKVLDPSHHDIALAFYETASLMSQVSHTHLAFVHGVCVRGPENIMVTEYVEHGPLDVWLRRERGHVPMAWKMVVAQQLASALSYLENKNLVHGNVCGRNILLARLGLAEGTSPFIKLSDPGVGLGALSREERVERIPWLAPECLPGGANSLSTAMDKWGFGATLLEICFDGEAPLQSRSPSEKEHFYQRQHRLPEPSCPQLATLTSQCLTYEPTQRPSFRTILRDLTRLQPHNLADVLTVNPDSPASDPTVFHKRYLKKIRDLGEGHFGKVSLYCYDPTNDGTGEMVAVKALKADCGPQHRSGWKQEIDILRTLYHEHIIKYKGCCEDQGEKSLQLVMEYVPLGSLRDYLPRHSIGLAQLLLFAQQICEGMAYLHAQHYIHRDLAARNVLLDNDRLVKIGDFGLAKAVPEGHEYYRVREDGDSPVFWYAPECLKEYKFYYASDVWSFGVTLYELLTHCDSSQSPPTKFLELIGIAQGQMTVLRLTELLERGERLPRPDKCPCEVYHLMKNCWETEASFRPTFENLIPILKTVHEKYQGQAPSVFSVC
Method in brief: as §1

SMILES | inhibition at 0.1 µM (LCK) [%] | inhibition at 1 µM (LCK) [%] | inhibition at 0.1 µM (EPHB4) [%] | inhibition at 1 µM (EPHB4) [%] | inhibition at 0.1 µM (FGFR4) [%] | inhibition at 1 µM (FGFR4) [%] | inhibition at 0.1 µM (SYK) [%] | inhibition at 1 µM (SYK) [%] | inhibition at 0.1 µM (PKCι) [%] | inhibition at 1 µM (PKCι) [%] | inhibition at 0.1 µM (DDR2) [%] | inhibition at 1 µM (DDR2) [%] | inhibition at 0.1 µM (PIM1) [%] | inhibition at 1 µM (PIM1) [%] | inhibition at 0.1 µM (TYK2) [%] | inhibition at 1 µM (TYK2) [%]
COc1cc(-c2cc(-c3cccc(O)c3)cnc2N)cc(OC)c1OC [K02288, 3-[6-amino-5-(3,4,5-trimethoxy-phenyl)-pyridin-3-yl]-phenol] | 13 | 58 | 0 | 5.9 | 4 | 0 | 0 | -2 | 0.3 | 1.6 | 0 | 11 | 0.2 | 1.5 | 0 | 1.8
c1ccc2c(-c3cnn4cc(-c5ccc(N6CCNCC6)cc5)cnc34)ccnc2c1 [LDN-193189] | 12 | 46 | -1 | 6.6 | 0.3 | 2.4 | -1 | -12 | 1.4 | 1.5 | 5.5 | 27 | -1 | -1 | -1 | -2
